Data as given in publication PMC6764291 (Frontiers in Oncology, 2019).
“Also recorded” adds a separate entry of the source. Like-named read-outs stand apart in the source and are kept apart here.

Tests used:
Format in all cases: cell-based
HCT116 = assay: XTT cell viability, HCT116
Protocol: The human squamous cell carcinoma cell lines UM-SCC-74A and UM-SCC-74B were kindly provided by Professor TE Carey (University of Michigan, USA) and cultured in Dulbecco's Modified Eagle Medium (DMEM) with 10% fetal bovine serum, 1% L-glutamine, 1% antibiotics (100 IU penicillin and 100 μg/ml streptomycin) as well as 1% non-essential amino acids (all from Biochrom Kg, Berlin, Germany). UT-SCC-45 (kindly provided by Dr. R. Grenman, Turku University Central Hospital, Finland) was cultured in DMEM with the abovementioned additives. HCT116 and A431 were purchased from American Type Culture Collection (Manassas, VA, USA). HCT116 was cultured in McCoy's modified Eagle medium with 10% fetal bovine serum, 1% L-glutamine and 1% antibiotics (100 IU penicillin and 100 μg/ml streptomycin) and A431 was cultured in Ham's F10 with the same additives. H314 was purchased from the European Collection of Authenticated Cell Cultures (Salisbury, UK) in DMEM/Ham's F12 (1:1) with the abovementioned additives. Cells were incubated at 37°C with 5% CO2, and cultivated for no longer than 2 months at a time.
(§1) Cells were irradiated using ^137Cs gamma-ray photons at a dose-rate of ~1 Gy/min (Best Theratronics Gammacell® 40Exactor, Springfield, USA).
Five-hundred to ten thousands cells were seeded in flat-bottomed 96-well plates and incubated for 48 h prior to irradiation with 2Gy. […] Cells were incubated at 37° for 4–5 days until 80–90% confluence had been obtained. A mix of XTT Activation Reagent and XTT Reagent was added according to the American Type Culture Collection 30–1011 K protocol (Manassas, VA, USA). Plates were incubated for up to 6 h at 37° and absorbance was measured by using a BioMark Microplate Reader (Bio-Rad Laboratories AB, Solna, Sweden).
GraphPad Prism version 6.07 (GraphPad Software, San Diego, USA) was used for data processing and analysis. p-values were determined using unpaired student's t-test for comparison between two groups or one-way ANOVA followed by Tukey's multiple comparisons test, with p < 0.05 (^*), p < 0.01 (^**), p < 0.001 (^***), and p < 0.0001 (^****). For XTT assays cell viability was normalized for irradiated and unirradiated samples separately. […] CDI ≤ 0.7 equaled significant synergistic effect, CDI ≤ 1 equaled additive effect and CDI > 1 equaled antagonistic effect ([29]).

A431 = assay: XTT cell viability, A431; conditions: n ≥ 4
Protocol: (§2) The human squamous cell carcinoma cell lines UM-SCC-74A and UM-SCC-74B were kindly provided by Professor TE Carey (University of Michigan, USA) and cultured in Dulbecco's Modified Eagle Medium (DMEM) with 10% fetal bovine serum, 1% L-glutamine, 1% antibiotics (100 IU penicillin and 100 μg/ml streptomycin) as well as 1% non-essential amino acids (all from Biochrom Kg, Berlin, Germany). UT-SCC-45 (kindly provided by Dr. R. Grenman, Turku University Central Hospital, Finland) was cultured in DMEM with the abovementioned additives. HCT116 and A431 were purchased from American Type Culture Collection (Manassas, VA, USA). […]
(§3) Five-hundred to ten thousands cells were seeded in flat-bottomed 96-well plates and incubated for 48 h prior to irradiation with 2Gy. […] Plates were incubated for up to 6 h at 37° and absorbance was measured by using a BioMark Microplate Reader (Bio-Rad Laboratories AB, Solna, Sweden).
(§4) GraphPad Prism version 6.07 (GraphPad Software, San Diego, USA) was used for data processing and analysis. p-values were determined using unpaired student's t-test for comparison between two groups or one-way ANOVA followed by Tukey's multiple comparisons test, with p < 0.05 (^*), p < 0.01 (^**), p < 0.001 (^***), and p < 0.0001 (^****). […]

H314 = assay: XTT cell viability, H314; conditions: n ≥ 4
Protocol: as §2, §3, §4

UT-SCC-45 = assay: XTT cell viability, UT-SCC-45; conditions: n ≥ 4
Protocol: as §2, §3, §4

p53 = assay: Western Blot p53 expression, HCT116; conditions: n ≥ 3
Protocol: as §1
(§5) Whole-cell lysates were prepared according to standard protocols. Protein concentrations were measured using a DeNovix DS-11 spectrophotometer (DeNovix Inc., Wilmington, DE, USA). Samples were separated on 4–12% Bis-Tris SDS gels and transferred to a nitrocellulose membrane (ThermoFisher Scientific, Uppsala, Sweden) by wet-transfer blotting. The membrane was blocked for 1 h in PBS with 5% BSA before incubation with primary antibodies targeting p53, caspase-3, NaK-ATPase and GLB1 (DO-1 (ab1101), ab13847, ab76020 and ab128993, AbCam, Cambridge, UK) and β-actin (A5441, Sigma Aldrich Sweden, Stockholm, Sweden) at 4°C overnight. After washing with PBS with 1% Tween-20, the membrane was incubated with respective and species-specific Horse Radish Peroxidase-labeled secondary antibody (ThermoFisher Scientific, Waltham, MA, USA) and stained with electro-chemiluminescent solution (Immobilon, Millipore, Bedford, USA).

cleaved caspase-3 [1] = assay: Western Blot cleaved caspase-3 expression, HCT116
Protocol: as §1, §5

GLB-1 = assay: Western Blot GLB-1 expression, HCT116; conditions: 2 Gy + 20 μM PM2, n ≥ 3
Protocol: as §1, §5

cleaved caspase-3 [2] = assay: Flow cytometry cleaved caspase-3, HCT116
Protocol: as §1
(§6) Cells were collected and fixed in 70% ethanol at 6, 12, 24, 48, 72, and 96 h post-irradiation and stored at −20°C. For cell cycle analyses, 6, 12, 24, and 48 h samples were rehydrated and washed twice with PBS and stained with DAPI (Sigma Aldrich Sweden, Stockholm, Sweden) using 1 μg/ml for 30 min. 24, 48, 72, and 96 h samples were stained with caspase-3 and Noxa (ab13847 (1:500) and ab13654 (1:1,000), AbCam, Cambridge, UK) overnight at 4°C, followed by incubation with fluorescent labeled secondary antibodies for 90 min (ab 1:400) at room temperature. Analyses were performed using a BD LSR Fortessa flow cytometer (Becton Dickinson Biosciences, San Jose, USA). Data analyses for cleaved caspase-3 and Noxa were performed with BD FACSDiVa (Becton Dickinson Biosciences, San Jose, USA), while cell cycle analyses of exclusively viable cells were performed using FlowJo (Becton, Dickinson Biosciences, San Jose, USA). Coefficient of variation (CV) values, were below seven for all samples.

Noxa = assay: Flow cytometry Noxa expression, HCT116
Protocol: as §1, §6

Compound: CC(=O)N[C@H](C(=O)N[C@@H](CO)C(=O)N[C@@H](Cc1ccccc1)C(=O)N[C@]1(C)CCCCCCC=CCCC[C@@](C)(C(N)=O)NC(=O)[C@H](CC(C)C)NC(=O)[C@H](CC(C)C)NC(=O)[C@H](C)NC(=O)[C@H](Cc2c[nH]c3ccccc23)NC(=O)[C@H](Cc2ccc(O)cc2)NC(=O)[C@H](CCC(=O)O)NC1=O)[C@@H](C)O [PM2]
- PM2 effect (HCT116; 0–20 μM PM2, 0 Gy, wild-type p53, HPV negative, n = 6): decreased significantly the viability and Yes
- average viability reduction (HCT116; 20 μM PM2, 0 Gy, compared to untreated controls): 75%
- IC50 (HCT116; PM2 added 3 h after 2 Gy EBRT, normalized to 2 Gy, 0 μM PM2, n = 6, read-out: IC50 of the combination treatment): 12 µM
- lowest PM2 dose with significant decrease of viability (HCT116; PM2 alone): ~ 10 μM
- IC50 (HCT116; PM2 alone (0 Gy), 4–5 days, n = 6, read-out: IC50 (cell viability)): 14 µM
- Significant effect of combination (HCT116; PM2 with 2 Gy EBRT, n = 6): Yes
- PM2 effect (A431; 0–20 μM PM2, 0 Gy, single base p53 mutation, HPV negative): did not affect and unaffected and No
- Significant effect of combination (A431; PM2 with 2 Gy EBRT): significantly decreased the viability and significant decrease in viability and Yes
- PM2 effect (H314; 0–20 μM PM2, 0 Gy, two p53 mutations, HPV negative): did not affect and No
- Significant effect of combination (H314; PM2 with 2 Gy EBRT): No
- PM2 effect (UT-SCC-45; 0–20 μM PM2, 0 Gy, wild-type p53 (exon 4–8), HPV positive): unresponsive and No response and No
- Significant effect of combination (UT-SCC-45; PM2 with 2 Gy EBRT): unresponsive and No response and No
- p53 expression (p53; 20 μM PM2, 24 h): increased expression of p53
- p53 expression, combination versus PM2 alone (p53; 2 Gy + 20 μM PM2, 24 h): significant increase; also recorded: further increased wt p53 levels
- increase in cleaved caspase-3 levels (cleaved caspase-3 [1]; 20 μM PM2, 96 h (representative blots), normalized to controls, n ≥ 3): three-fold
- cleaved caspase-3 expression (cleaved caspase-3 [1]; 20 μM PM2-treated samples, n ≥ 3): increase in expression
- cleaved caspase-3 expression, combination (cleaved caspase-3 [1]; 2 Gy + 20 μM PM2, n ≥ 3): predominant
- GLB-1 expression versus irradiated and control, combination (GLB-1): less pronounced and failed to reach significance
- cleaved caspase-3 expression (cleaved caspase-3 [2]; 20 μM PM2, 72 h): distinct increases
- cleaved caspase-3 increase compared to controls (cleaved caspase-3 [2]; 20 μM PM2-treated, peak at 96 h, n ≥ 3): 10 fold
- Noxa expression (Noxa; 20 μM PM2, 72 h): distinct increases
- Noxa increase, combination compared to PM2 therapy alone (Noxa; 2 Gy + 20 μM PM2, p ≤ 0.01, n ≥ 3): 4 fold
